Assay: Iron oxidation (ferrous to ferric) during boiling in water in an open container
Type: physicochemical
Conditions: 2 hours
Method: Dry micronutrient-loaded MPs were dispersed in water and then heated at 100° C. for 2 hours before being centrifuged at 4000 rpm for 5 min. Chemically stable MNs in both the supernatant and the MPs were quantified using the methods as described above. The stability percentage equals to the ratio of stable MN after heating as determined by HPLC to the actual loading content of the MN in the MPs. For samples in non-encapsulated form, they were either dissolved in water (water soluble vitamins such as vitamins B9 and B12) or dispersed in water (fat soluble vitamins such as vitamins A and D) before being heated for 2 hrs. Iron-loaded HA-EPO-MPs were dispersed in water and then heated at 100° C. for 2 hours and analyzed for ferrous and ferric content as described above.
It was investigated how iron encapsulation in HA-EPO-MPs impacts oxidation during boiling in water in an open container, since both higher temperatures and atmospheric exposure will accelerate iron oxidation. For encapsulated iron, less than 2% oxidizes to ferric iron, and for non-encapsulated iron over 15% is oxidized to ferric iron (FIG. 4D).

ferrous sulfate [Non-Encapsulated Fe]
iron oxidized to ferric iron: over 15%
